{
  "source": "patent US6316644A",
  "about": "“Pilyethoxylated retinamide derivatives and process for preparing the same” (LG Chemical Ltd., priority 1998, dated 2001)",
  "key": {"[1]": {"test_system": "skin photoaging", "settings": "cited from earlier work"}, "[2]": {"settings": "relative to retinoic acid; FASEB J., 10, 1014-1024, 1996; cited from earlier work"}, "[3]": {"test_system": "auricular lymph node", "settings": "mouse, in vivo", "description": "Toxicol. 10(3); 173-180]. […] Each of the test sample was applied to both ears of Blab/c mouse in an amount of 50μl for 3 days and then auricular lymph node was isolated from mouse. Lymph node was micronized to monocellular state and then incubated for 24 hours with addition of radioisotope (^3 H-thymidine)."}, "[4]": {"test_system": "human fibroblasts", "assay": "Test for collagen synthesis (tritiated proline, CSP)", "description": "The same count of human fibroblasts was incubated in each well of 24-well plate for 24 hours and then the test sample was applied thereto at the concentration of 10^-4 to 10^-7 w %/ml. After 2 hours, tritiated proline (L-2,3-^3 H proline) was applied to the plate and then further incubated for 24 hours. The amount of collagen as newly synthesized and secreted by fibroblasts utilizing the culture medium was measured by calculating the amount of CPS (collagenous sensitive protein) on the basis of cpm (counting per minute) number of L-2,3-^3 H proline."}, "[5]": {"settings": "lipid-soluble; cited from earlier work"}, "[6]": {"test_system": "skin of 9-weeks aged naked female mouse", "assay": "Test for organ incubation of skin (MTT assay)", "experimental": "(§1) The test for organ incubation of skin was carried out by MTT assay method using naked female mouse."}, "[7]": {"test_system": "skin", "settings": "guinea pig, in vivo", "description": "Assoc. Food and Drug Officials, US. Appraisal of the safety of chemicals in Food, Drugs and Cosmetics, pp46-59, Texas State Dept. of Health, Austin, Tex. and 2 Federal Register (1973): Method of testing primary irritant substances 38(187): pp1500-1541]. Six kinds of the test solutions were prepared at the concentration of 0.3% by using o/w formulation or Lexol GT-865 as the carrier vehicle. First, hair was removed from the portion (dorsal skin of mouse) for applying the test solution and then the naked portion was adapted to the environmental circumstance for 24 hours in order to minimize the skin irritability. The test solution and gauze were applied to the established portion (1.5 cm×1.5 cm) for applying the test solution, which was then sealed with the solid thin film and fixed with the elastic bandage for 48 hours in order to inhibit the evaporation and loss of the test sample. After 2 and 24 hours from removal of the closed patch (i. e. 50 and 72 hours after patch application, respectively), the degree of irritation was determined."}, "[8]": {"settings": "pH 7.4", "experimental": "The tests for identification of pharmacological activities of the compound of formula (I) according to the present invention were conducted as follows. First, the test for percutaneous absorption was carried out by cutting off the dorsal skin from 8-weeks aged female mouse, applying the test sample (35 mM) to the skin and then analysing the percutaneous absorption of the test sample by means of an apparatus for measuring percutaneous absorption (Franz cell) and HPLC.\nSpecifically, the dorsal skin of 8-weeks aged female mouse (naked mouse) was cut off and then 35 ml solution of the test sample was applied in an amount of 250 μl to the skin having a size of 1.7cm^2. Using the apparatus for measuring percutaneous absorption (Franz cell), after 24 hours, the absorbed materials were extracted respectively from 7 ml of the receptor solution [50 mM PBS buffer solution (pH=7.4) containing 2% VolPO20 Polyethylene oleyl ether (HLB=16)] and the skin and then quantitatively analyzed by high pressure liquid chromatography (HPLC)."}, "[9]": {"test_system": "skin of 9-weeks aged naked female mouse", "experimental": "as §1"}, "[10]": {"test_system": "V79-4 cells", "assay": "Cytotoxicity test (MTT assay)", "type": "cell-based, Chinese hamster", "settings": "FIG. 2", "experimental": "The cytotoxicity test was carried out by MTT assay method using V79-4 cells."}, "[11]": {"settings": "0.3% in Lexol GT-865, MTT assay"}},
  "note": "Like-named read-outs stand apart in the source and are kept apart here.",
  "data": [
    {"compound": "COc1ccc(C(C)=O)c(OC(=O)/C=C(C)/C=C/C=C(C)/C=C/C2=C(C)CCCC2(C)C)c1", "note": "[2-(all-trans-retinoyloxy)-4-methoxyacetophenone]", "values": [
      {"measurement": "inhibition of skin cancer and photoaging", "setting": "[1]; U.S. Pat. No. 4,677,120", "value": "exhibits an effect of inhibiting skin cancer and photoaging"}
    ]},
    {"compound": "CC1=C(/C=C/C(C)=C/C=C/C(C)=C/C(=O)Nc2ccc(O)cc2)C(C)(C)CCC1", "note": "[N-(4-hydroxy-phenyl)retinamide (4-HPR), N-(4-hydroxy-phenyl)retinamide]", "values": [
      {"measurement": "toxicity", "setting": "[2]", "value": "relatively reduced toxicity"}
    ]},
    {"compound": "CC1=C(/C=C/C(C)=C/C=C/C(C)=C/C(=O)O)C(C)(C)CCC1", "note": "[Retinoic acid, all-trans-retinoic acid]", "values": [
      {"measurement": "allergy induction in comparison to ethanol", "setting": "[3]", "value": "six times or more"},
      {"measurement": "activation at 1e-06 w %/ml", "setting": "[4]; Homo sapiens, Fibroblast, read-out: increase in collagen synthesis", "value": "≤ 21.7", "unit": "%"},
      {"measurement": "skin absorption", "setting": "[5]", "value": "low skin absorption"},
      {"measurement": "irritation", "setting": "[6]; 0.3%", "value": "strong irritation"},
      {"measurement": "Degree of irritation", "setting": "[6]; [11]", "value": 0.11},
      {"measurement": "Safety", "setting": "[6]; [11]", "value": "strong irritation"},
      {"measurement": "difference between the irritation degrees", "setting": "[7]", "value": "no significant difference"},
      {"measurement": "skin photoaging", "setting": "[1]; cream preparation applied to skin, JAMA 259, 1988", "value": "can be improved"},
      {"measurement": "Receptor solution (amount absorbed)", "setting": "[8]", "value": 11.40, "unit": "nmol"}
    ]},
    {"compound": "CCCCCCCCCCCCCCCC(=O)OC/C=C(C)/C=C/C=C(C)/C=C/C1=C(C)CCCC1(C)C", "note": "[Retinol palmitate, retinol palmitate]", "values": [
      {"measurement": "allergy induction in comparison to ethanol", "setting": "[3]", "value": "six times or more"},
      {"measurement": "effect of increasing collagen synthesis", "setting": "[4]; 10^-4 to 10^-7 w %/ml, FIG. 1", "value": "does substantially not exhibit an effect of increasing collagen synthesis"},
      {"measurement": "difference between the irritation degrees", "setting": "[7]", "value": "no significant difference"},
      {"measurement": "Receptor solution (amount absorbed)", "setting": "[8]", "value": 0.48, "unit": "nmol"},
      {"measurement": "Degree of irritation", "setting": "[9]", "value": 0.34},
      {"measurement": "Safety", "setting": "[9]", "value": "minute irritation"},
      {"measurement": "irritation", "setting": "[9]", "value": "weak irritation"}
    ]},
    {"compound": "CC1=C(/C=C/C(C)=C/C=C/C(C)=C/CO)C(C)(C)CCC1", "note": "[Retinol, retinol]", "values": [
      {"measurement": "Receptor solution (amount absorbed)", "setting": "[8]", "value": 11.48, "unit": "nmol"}
    ]},
    {"compound": "CCCCCCCCCCCCOS(=O)(=O)[O-].[Na+]", "note": "[Sodium lauryl sulfate]", "values": [
      {"measurement": "Safety", "setting": "[6]; control group, <0.05%", "value": "minute irritation"},
      {"measurement": "Safety", "setting": "[6]; control group, <0.25%", "value": "moderate irritation"},
      {"measurement": "Safety", "setting": "[6]; control group, <0.5%", "value": "strong irritation"}
    ]},
    {"compound": "CC1=C(/C=C/C(C)=C/C=C/C(C)=C/C(=O)O[C@@H]2O[C@H](C(=O)O)[C@@H](O)[C@H](O)[C@H]2O)C(C)(C)CCC1", "note": "[retinoyl β-glucuronide (RAG), retinoyl β-glucuronide]", "values": [
      {"measurement": "toxicity", "setting": "[2]", "value": "relatively reduced toxicity"}
    ]},
    {"compound": "polyethoxylated retinamide of formula (I) (R=methyl, n=9.8)", "values": [
      {"measurement": "effect of increasing collagen synthesis at cytotoxic concentration", "setting": "[4]; 10^-3 w %/ml or more", "value": "does not exhibit any increasing effect"},
      {"measurement": "increase in collagen synthesis (highest effect)", "setting": "[4]; 10^-7 w %/ml", "value": 33.8, "unit": "%"},
      {"measurement": "concentration at which effect of increasing collagen synthesis begins", "setting": "[4]; limiting concentration at which any toxicity is not caused", "value": "below 10^-4 w %/ml"},
      {"measurement": "cytotoxicity", "setting": "[10]; 10^-3 w %/ml or more", "value": "exhibits gradually"},
      {"measurement": "cytotoxicity", "setting": "[10]; 10^-4 w %/ml and below", "value": "only a weak toxicity"}
    ]}
  ]
}
